From patent US20140348819A1, “Methods of Treating Cancer” (Dana-Farber Cancer Institute, Inc., priority 2011, published 2014)

Test system: six V600E BRAF melanoma cell lines
Assay: Screening of recombinant RTK ligands for ability to confer resistance to BRAFi (PLX4720) or MEKi (PD184352) (Table 4)
Type: cell-based, human
Parameters: ability of recombinant RTK ligand to confer resistance / ability of recombinant RTK ligand to confer resistance (screening value): scale not given here
Summary of the method: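 Resistance to BRAFi (PLX4720) or MEKi (PD184352) was tested in six V600E BRAF melanoma lines given one of 22 recombinant RTK ligands. For a subset of RTKs, activation was checked by high-throughput tyrosine kinase phosphorylation profiling and western blot.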

[1] = A2058, PD184352 - 1 uM, ligand 1.6 ng/ml
[2] = A2058, PD184352 - 1 uM, ligand 6.25 ng/ml
[3] = A2058, PD184352 - 1 uM, ligand 25 ng/ml
[4] = A2058, PD184352 - 1 uM, ligand 100 ng/ml
[5] = A2058, PLX4720 - 2 uM, ligand 1.6 ng/ml
[6] = A2058, PLX4720 - 2 uM, ligand 6.25 ng/ml
[7] = A2058, PLX4720 - 2 uM, ligand 25 ng/ml
[8] = A2058, PLX4720 - 2 uM, ligand 100 ng/ml
[9] = C32, PD184352 - 1 uM, ligand 1.6 ng/ml
[10] = C32, PD184352 - 1 uM, ligand 6.25 ng/ml
[11] = C32, PD184352 - 1 uM, ligand 25 ng/ml
[12] = C32, PD184352 - 1 uM, ligand 100 ng/ml
[13] = C32, PLX4720 - 2 uM, ligand 1.6 ng/ml
[14] = C32, PLX4720 - 2 uM, ligand 6.25 ng/ml
[15] = C32, PLX4720 - 2 uM, ligand 25 ng/ml
[16] = C32, PLX4720 - 2 uM, ligand 100 ng/ml
[17] = Colo 829, PD184352 - 1 uM, ligand 1.6 ng/ml
[18] = Colo 829, PD184352 - 1 uM, ligand 6.25 ng/ml
[19] = Colo 829, PD184352 - 1 uM, ligand 25 ng/ml
[20] = Colo 829, PD184352 - 1 uM, ligand 100 ng/ml
[21] = Colo 829, PLX4720 - 2 uM, ligand 1.6 ng/ml
[22] = Colo 829, PLX4720 - 2 uM, ligand 6.25 ng/ml
[23] = Colo 829, PLX4720 - 2 uM, ligand 25 ng/ml
[24] = Colo 829, PLX4720 - 2 uM, ligand 100 ng/ml
[25] = G-361, PD184352 - 1 uM, ligand 1.6 ng/ml
[26] = G-361, PD184352 - 1 uM, ligand 6.25 ng/ml
[27] = G-361, PD184352 - 1 uM, ligand 25 ng/ml
[28] = G-361, PD184352 - 1 uM, ligand 100 ng/ml
[29] = G-361, PLX4720 - 2 uM, ligand 1.6 ng/ml
[30] = G-361, PLX4720 - 2 uM, ligand 6.25 ng/ml
[31] = G-361, PLX4720 - 2 uM, ligand 25 ng/ml
[32] = G-361, PLX4720 - 2 uM, ligand 100 ng/ml
[33] = SK-MEL-5, PD184352 - 1 uM, ligand 1.6 ng/ml
[34] = SK-MEL-5, PD184352 - 1 uM, ligand 6.25 ng/ml
[35] = SK-MEL-5, PD184352 - 1 uM, ligand 25 ng/ml
[36] = SK-MEL-5, PD184352 - 1 uM, ligand 100 ng/ml
[37] = SK-MEL-5, PLX4720 - 2 uM, ligand 1.6 ng/ml
[38] = SK-MEL-5, PLX4720 - 2 uM, ligand 6.25 ng/ml
[39] = SK-MEL-5, PLX4720 - 2 uM, ligand 25 ng/ml
[40] = SK-MEL-5, PLX4720 - 2 uM, ligand 100 ng/ml
[41] = SK-MEL-28, PD184352 - 1 uM, ligand 1.6 ng/ml
[42] = SK-MEL-28, PD184352 - 1 uM, ligand 6.25 ng/ml
[43] = SK-MEL-28, PD184352 - 1 uM, ligand 25 ng/ml
[44] = SK-MEL-28, PD184352 - 1 uM, ligand 100 ng/ml
[45] = SK-MEL-28, PLX4720 - 2 uM, ligand 1.6 ng/ml
[46] = SK-MEL-28, PLX4720 - 2 uM, ligand 6.25 ng/ml
[47] = SK-MEL-28, PLX4720 - 2 uM, ligand 25 ng/ml
[48] = SK-MEL-28, PLX4720 - 2 uM, ligand 100 ng/ml

Substance: SCF
- ability of recombinant RTK ligand to confer resistance (A2058, PD184352 - 1 uM, ligand 0.4 ng/ml): 1.04
- ability of recombinant RTK ligand to confer resistance [1]: 1.04
- ability of recombinant RTK ligand to confer resistance [2]: 1.13
- ability of recombinant RTK ligand to confer resistance [3]: 1.12
- ability of recombinant RTK ligand to confer resistance [4]: 1.09
- ability of recombinant RTK ligand to confer resistance (A2058, PLX4720 - 2 uM, ligand 0.4 ng/ml): 1.04
- ability of recombinant RTK ligand to confer resistance [5]: 1.06
- ability of recombinant RTK ligand to confer resistance [6]: 1.07
- ability of recombinant RTK ligand to confer resistance [7]: 1.13
- ability of recombinant RTK ligand to confer resistance [8]: 1.08
- ability of recombinant RTK ligand to confer resistance (C32, PD184352 - 1 uM, ligand 0.4 ng/ml): 1.02
- ability of recombinant RTK ligand to confer resistance [9]: 1.05
- ability of recombinant RTK ligand to confer resistance [10]: 1.03
- ability of recombinant RTK ligand to confer resistance [11]: 1.04
- ability of recombinant RTK ligand to confer resistance [12]: 0.98
- ability of recombinant RTK ligand to confer resistance (C32, PLX4720 - 2 uM, ligand 0.4 ng/ml): 1.05
- ability of recombinant RTK ligand to confer resistance [13]: 0.94
- ability of recombinant RTK ligand to confer resistance [14]: 0.97
- ability of recombinant RTK ligand to confer resistance [15]: 0.98
- ability of recombinant RTK ligand to confer resistance [16]: 0.96
- ability of recombinant RTK ligand to confer resistance (Colo 829, PD184352 - 1 uM, ligand 0.4 ng/ml): 1.00
- ability of recombinant RTK ligand to confer resistance [17]: 1.08
- ability of recombinant RTK ligand to confer resistance [18]: 1.15
- ability of recombinant RTK ligand to confer resistance [19]: 1.18
- ability of recombinant RTK ligand to confer resistance [20]: 1.09
- ability of recombinant RTK ligand to confer resistance (Colo 829, PLX4720 - 2 uM, ligand 0.4 ng/ml): 0.96
- ability of recombinant RTK ligand to confer resistance [21]: 1.01
- ability of recombinant RTK ligand to confer resistance [22]: 1.06
- ability of recombinant RTK ligand to confer resistance [23]: 1.10
- ability of recombinant RTK ligand to confer resistance [24]: 1.04
- ability of recombinant RTK ligand to confer resistance (G-361, PD184352 - 1 uM, ligand 0.4 ng/ml): 1.06
- ability of recombinant RTK ligand to confer resistance [25]: 0.99
- ability of recombinant RTK ligand to confer resistance [26]: 1.06
- ability of recombinant RTK ligand to confer resistance [27]: 1.13
- ability of recombinant RTK ligand to confer resistance [28]: 1.07
- ability of recombinant RTK ligand to confer resistance (G-361, PLX4720 - 2 uM, ligand 0.4 ng/ml): 1.07
- ability of recombinant RTK ligand to confer resistance [29]: 1.03
- ability of recombinant RTK ligand to confer resistance [30]: 1.04
- ability of recombinant RTK ligand to confer resistance [31]: 1.12
- ability of recombinant RTK ligand to confer resistance [32]: 1.07
- ability of recombinant RTK ligand to confer resistance (SK-MEL-5, PD184352 - 1 uM, ligand 0.4 ng/ml): 0.97
- ability of recombinant RTK ligand to confer resistance [33]: 0.34
- ability of recombinant RTK ligand to confer resistance [34]: 1.02
- ability of recombinant RTK ligand to confer resistance [35]: 1.10
- ability of recombinant RTK ligand to confer resistance [36]: 1.12
- ability of recombinant RTK ligand to confer resistance (SK-MEL-5, PLX4720 - 2 uM, ligand 0.4 ng/ml): 0.90
- ability of recombinant RTK ligand to confer resistance [37]: 8.91
- ability of recombinant RTK ligand to confer resistance [38]: 0.96
- ability of recombinant RTK ligand to confer resistance [39]: 1.00
- ability of recombinant RTK ligand to confer resistance [40]: 1.09
- ability of recombinant RTK ligand to confer resistance (SK-MEL-28, PD184352 - 1 uM, ligand 0.4 ng/ml): 1.03
- ability of recombinant RTK ligand to confer resistance [41]: 0.94
- ability of recombinant RTK ligand to confer resistance [42]: 1.01
- ability of recombinant RTK ligand to confer resistance [43]: 1.06
- ability of recombinant RTK ligand to confer resistance [44]: 0.99
- ability of recombinant RTK ligand to confer resistance (SK-MEL-28, PLX4720 - 2 uM, ligand 0.4 ng/ml): 0.92
- ability of recombinant RTK ligand to confer resistance [45]: 0.89
- ability of recombinant RTK ligand to confer resistance [46]: 0.98
- ability of recombinant RTK ligand to confer resistance [47]: 0.92
- ability of recombinant RTK ligand to confer resistance [48]: 0.98

Substance: neuregulin 1
- ability of recombinant RTK ligand to confer resistance [1]: 1.04
- ability of recombinant RTK ligand to confer resistance [2]: 1.08
- ability of recombinant RTK ligand to confer resistance [3]: 1.14
- ability of recombinant RTK ligand to confer resistance [4]: 1.18
- ability of recombinant RTK ligand to confer resistance (A2058, PD184352 - 1 uM, ligand 400 ng/ml): 1.27
- ability of recombinant RTK ligand to confer resistance [5]: 1.05
- ability of recombinant RTK ligand to confer resistance [6]: 1.07
- ability of recombinant RTK ligand to confer resistance [7]: 1.12
- ability of recombinant RTK ligand to confer resistance [8]: 1.09
- ability of recombinant RTK ligand to confer resistance (A2058, PLX4720 - 2 uM, ligand 400 ng/ml): 1.22
- ability of recombinant RTK ligand to confer resistance [9]: 1.12
- ability of recombinant RTK ligand to confer resistance [10]: 1.20
- ability of recombinant RTK ligand to confer resistance [11]: 1.24
- ability of recombinant RTK ligand to confer resistance [12]: 1.52
- ability of recombinant RTK ligand to confer resistance (C32, PD184352 - 1 uM, ligand 400 ng/ml): 1.32
- ability of recombinant RTK ligand to confer resistance [13]: 1.01
- ability of recombinant RTK ligand to confer resistance [14]: 1.07
- ability of recombinant RTK ligand to confer resistance [15]: 1.10
- ability of recombinant RTK ligand to confer resistance [16]: 1.20
- ability of recombinant RTK ligand to confer resistance (C32, PLX4720 - 2 uM, ligand 400 ng/ml): 1.22
- ability of recombinant RTK ligand to confer resistance [17]: 1.10
- ability of recombinant RTK ligand to confer resistance [18]: 1.04
- ability of recombinant RTK ligand to confer resistance [19]: 1.11
- ability of recombinant RTK ligand to confer resistance [20]: 1.37
- ability of recombinant RTK ligand to confer resistance (Colo 829, PD184352 - 1 uM, ligand 400 ng/ml): 1.21
- ability of recombinant RTK ligand to confer resistance [21]: 0.03
- ability of recombinant RTK ligand to confer resistance [22]: 0.98
- ability of recombinant RTK ligand to confer resistance [23]: 1.06
- ability of recombinant RTK ligand to confer resistance [24]: 1.24
- ability of recombinant RTK ligand to confer resistance (Colo 829, PLX4720 - 2 uM, ligand 400 ng/ml): 1.17
- ability of recombinant RTK ligand to confer resistance [25]: 0.93
- ability of recombinant RTK ligand to confer resistance [26]: 0.96
- ability of recombinant RTK ligand to confer resistance [27]: 0.98
- ability of recombinant RTK ligand to confer resistance [28]: 1.01
- ability of recombinant RTK ligand to confer resistance (G-361, PD184352 - 1 uM, ligand 400 ng/ml): 1.17
- ability of recombinant RTK ligand to confer resistance [29]: 0.87
- ability of recombinant RTK ligand to confer resistance [30]: 1.06
- ability of recombinant RTK ligand to confer resistance [31]: 0.93
- ability of recombinant RTK ligand to confer resistance [32]: 0.99
- ability of recombinant RTK ligand to confer resistance (G-361, PLX4720 - 2 uM, ligand 400 ng/ml): 1.14
- ability of recombinant RTK ligand to confer resistance [33]: 0.96
- ability of recombinant RTK ligand to confer resistance [34]: 0.97
- ability of recombinant RTK ligand to confer resistance [35]: 1.01
- ability of recombinant RTK ligand to confer resistance [36]: 1.06
- ability of recombinant RTK ligand to confer resistance (SK-MEL-5, PD184352 - 1 uM, ligand 400 ng/ml): 1.07
- ability of recombinant RTK ligand to confer resistance [37]: 0.94
- ability of recombinant RTK ligand to confer resistance [38]: 0.91
- ability of recombinant RTK ligand to confer resistance [39]: 0.98
- ability of recombinant RTK ligand to confer resistance [40]: 1.04
- ability of recombinant RTK ligand to confer resistance (SK-MEL-5, PLX4720 - 2 uM, ligand 400 ng/ml): 0.96
- ability of recombinant RTK ligand to confer resistance [41]: 1.09
- ability of recombinant RTK ligand to confer resistance [42]: 1.08
- ability of recombinant RTK ligand to confer resistance [43]: 1.05
- ability of recombinant RTK ligand to confer resistance [44]: 1.08
- ability of recombinant RTK ligand to confer resistance (SK-MEL-28, PD184352 - 1 uM, ligand 400 ng/ml): 1.22
- ability of recombinant RTK ligand to confer resistance [45]: 0.92
- ability of recombinant RTK ligand to confer resistance [46]: 1.18
- ability of recombinant RTK ligand to confer resistance [47]: 1.09
- ability of recombinant RTK ligand to confer resistance [48]: 1.09
- ability of recombinant RTK ligand to confer resistance (SK-MEL-28, PLX4720 - 2 uM, ligand 400 ng/ml): 1.19
